Measured values published in patent publication US8188148B2, “Substituted 1,3-diphenylpropane derivatives, preparations and uses thereof” (Genfit, priority 2006, dated 2012).

Key:
C57BI6 mouse = test: In vivo evaluation on C57BI6 mouse: body weight and plasma lipids; conditions: C57BI6 mouse, 3, 10, and 30 mpk per os, 14 days, vs control
Protocol: The effect of the compounds according to the invention is evaluated in vivo on the C57BI6 mouse by measuring the body weight evolution, the plasma HDL cholesterol and triglyceride levels, after 14 days of a per os treatment with the compounds according to the invention.
Female C57BI6 mice were kept on a 12 hour/12 hour light/dark cycle at a constant temperature of 20±3° C. After a one week acclimatization period, the mice were weighed and divided into groups of 6 animals selected such as the distribution of body weight and of plasma lipid rate, determined before the experiment, was uniform. The tested compounds were suspended in carboxymethylcellulose (Sigma C4888) and administered to the animals by gastric gavage, once a day for 14 days at the chosen doses. The animals had free access to food and water (standard diet). Taking of food and weight gain are recorded throughout the experiment. At the end of the experiment, after a 4 hour fast, the animals were anesthetized and a blood sample was taken on anticoagulant (EDTA). Then the mice were weighed and euthanized. The plasma was separated by centrifugation at 3000 rotations/minute for 20 minutes. The samples were kept at +4° C. Hepatic tissue samples were removed, frozen in liquid nitrogen, and then kept at −80° C. for later analyses.
Low-density lipoproteins (VLDL and LDL) are precipitated by Phosphotungstate. The precipitate is eliminated by centrifugation. HDL-cholesterol present in the supernatant is measured by enzymatic assays (bioMérieux-Lyon-France) in accordance with the provider's recommendations.
Plasma triglyceride concentrations were measured by enzymatic assays (bioMérieux-Lyon-France) according to the provider's recommendations.

[1] = test system: PPARs target genes (PDK4, ApoCIII); test: Hepatic gene expression by quantitative RT-PCR in C57BI6 mouse; format: in vivo; conditions: C57BI6 mouse, 3, 10, and 30 mpk, 14 days, normalized to 36B4
Protocol: The effectiveness of the compounds according to the invention is also evaluated by measuring, in hepatic tissue, the expression of the genes involved in lipid metabolism. Each level of gene expression is normalized regarding the expression level of the reference gene 36B4. The induction factor is then calculated. The higher the induction factor is, the more the compound promotes hepatic gene expression. […]
Total RNA was extracted from liver fragments by using a NucleoSpin® 96 RNA kit (Macherey Nagel, Hoerdt, France) according to the manufacturer's instructions. 1 μg of total RNA (quantified by spectrophotometry) was then reverse-transcripted into cDNA by means of a 1 hour reaction at 37° C. in a total volume of 20 μl containing a 1× buffer (Sigma), 1.5 mM of DTT, 0.18 mM of dNTPs (Promega), 200 ng of pdN6 (Amersham), 30 U of RNase inhibitor (Sigma), and 1 μl of MMLV-RT (Sigma).
The PCR quantitative experiments were carried out using the MyiQ Single-Color Real-Time PCR Detection System (Biorad, Marnes-la-Coquette, France) and were performed using the iQ SYBR Green Supermix kit according to the provider's recommendations, in 96-well plates in 5 μl of a diluted reverse transcription solution and at a hybridization temperature of 55° C. […]
The amount of fluorescence emitted is directly proportional to the amount of cDNA present at the beginning of the reaction and amplified during the PCR. […]

## Cc1cc(CCC(=O)c2ccc(OC(F)(F)F)cc2)cc(C)c1OC(C)(C)C(=O)O [Compound 1, 2-[2,6-dimethyl-4-[3-[4-(trifluoromethyloxy)phenyl]-3-oxo-propyl]phenoxy]-2-methyl-propanoic acid]
C57BI6 mouse
  body weight gain: weight loss
  plasma HDL-cholesterol: very significantly increased
  plasma triglycerides: very significantly diminished
[1]
  hepatic expression of the gene coding for ApoCIII: reduction
  hepatic expression of the gene coding for PDK4: significant increase
